Reference: patent US9814796B2, “Methods for sterilization and/or disinfection” (P[…] OF NEVADA, LLC, priority 2015, dated 2017)
Where two headings read alike, the source gives them in different places.

Assays:
[1] = system: Bacillus atrophaeus ATCC 9372 spores; settings: 28% hydrogen peroxide, 65° C.
Description: The mixture was then serially ten-fold diluted in saline and spread-plated on tryptic soy agar.

[2] = system: Bacillus atrophaeus ATCC 9372 spores; settings: conventional usage regime; cited from earlier work
[3] = system: Bacillus atrophaeus ATCC 9372 spores; assay: Efficacy usage regimes of hydrogen peroxide and peracetic acid as compared to performic acid; type: cell-based; settings: performic acid regime per Table 3
Description: For example, temperatures greater than about 55° C. to 65° C. and exposure times greater than about fifteen seconds may be employed in conventional techniques.

OO [Hydrogen Peroxide, hydrogen peroxide]
contact time per one logarithm of spore inactivation [1]: seven | Efficacy usage regime: Temperature [2]: 65 °C | Efficacy usage regime: Time [2]: 15 to 30 s

performic acid
Efficacy usage regime: Temperature [3]: Room Temperature | Efficacy usage regime: Time [3]: 5 s

CC(=O)OO [Peracetic Acid, peracetic acid]
Efficacy usage regime: Temperature [2]: 55 °C | Efficacy usage regime: Time [2]: 15 s
